Each structure is given as a SMILES string.

One may read the IC50 as the midpoint of a concentration-inhibition curve. Low values mean inhibition by little substance, high ones a need for much substance.

One test has as its target T1, rabbit reticulocyte 15-LO (Oryctolagus cuniculus, UniProt P12530).
T1 construct: Fifteen-lipoxygenase was obtained from phenylhydrazine-treated rabbits and purified per the method of Rapoport; from tissue; host or cells: reticulocytes of phenylhydrazine-treated rabbits
T1 sequence (P12530 1-663): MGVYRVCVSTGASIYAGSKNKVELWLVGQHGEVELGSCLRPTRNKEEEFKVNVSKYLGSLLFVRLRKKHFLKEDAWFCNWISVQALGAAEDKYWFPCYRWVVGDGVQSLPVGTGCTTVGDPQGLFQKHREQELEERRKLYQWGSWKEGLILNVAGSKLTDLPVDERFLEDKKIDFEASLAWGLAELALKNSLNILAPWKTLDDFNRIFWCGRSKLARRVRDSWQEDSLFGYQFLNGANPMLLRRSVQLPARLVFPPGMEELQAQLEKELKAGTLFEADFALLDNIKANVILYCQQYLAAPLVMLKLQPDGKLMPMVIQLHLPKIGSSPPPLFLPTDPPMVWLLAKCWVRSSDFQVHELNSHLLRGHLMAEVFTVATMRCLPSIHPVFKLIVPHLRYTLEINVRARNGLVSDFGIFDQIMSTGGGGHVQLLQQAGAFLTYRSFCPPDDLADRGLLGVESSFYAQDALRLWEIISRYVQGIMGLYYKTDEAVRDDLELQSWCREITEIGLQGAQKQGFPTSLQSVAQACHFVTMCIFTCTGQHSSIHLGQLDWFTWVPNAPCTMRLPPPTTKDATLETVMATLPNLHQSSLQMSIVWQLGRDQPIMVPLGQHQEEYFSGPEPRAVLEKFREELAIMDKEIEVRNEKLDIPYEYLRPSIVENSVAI
The experiment in a line: Rabbit Reticulocyte 15-LO Assay (h15LO). It counts as biochemical. The settings on record: Table 2; 2U rabbit reticulocyte 15-LO, 174 μM linoleic acid, 15 minutes at 4° C. The method, then:
Rabbit Reticulocyte 15-LO Assay (h15LO)
The present 15-LO assay takes advantage of the ability of 15-LO to oxidize the fatty acid linoleic acid to the hydroperoxy fatty acid 13-(S)HPODE, resulting in the formation of a conjugated diene. The 15-LO inhibitors are incubated with 15-LO enzyme in the presence of linoleic acid substrate. The initial reaction is compared to an uninhibited (maximal) reaction to yield % inhibition. […] This prevents artificial nonenzyme lipid peroxidation and product breakdown in the sample. 13-HPODE is quantitated by comparing peak areas of individual samples with those from a standard curve generated using authentic 13-HODE. This assay is performed using 2U of rabbit reticulocyte 15-LO in the presence of 174 μM linoleic acid. The reaction is incubated for 15 minutes at 4° C. The total reaction volume is 100 μL in PBS containing 0.2% Na cholate.
Fifteen-lipoxygenase was obtained from phenylhydrazine-treated rabbits and purified per the method of Rapoport (Rapoport S. M., Schewe T., Wiesner R., et al. The lipoxygenase of reticulocytes. Purification, characterization, and biological dynamics of the lipoxygenase; its identity with the respiratory inhibitors of the reticulocyte. European Journal of Biochemistry, 1979;96:545-561). The following chemicals were purchased and used as received: linoleic acid (NUJCheck Prep), 13-HPODE (Biomol Research Labs), sodium cholate (Sigma), trimethyl phosphite (Fluka Chemicals).
Regarding `COc1ccc(C(=O)OCc2ccccc2)cc1NC(=S)Nc1cc(Cl)cc(Cl)c1` [Example 176, 3-[3-(3,5-Dichloro-phenyl)-thioureido]-4-methoxy-benzoic Acid Benzyl Ester], the IC50 is 800 nM.
Compound `CCCCCCCCCCCCS(=O)(=O)Nc1cc(C(=O)Nc2ccccc2)ccc1OC` [Example 177, 3-(Dodecane-1-sulfonylamino)-4-methoxy-N-phenyl-benzamide] returned a 50% inhibitory concentration (IC50) of 2 nM. Compared with the last compound, the IC50 is about 400-fold lower.
Still for that read-out and setting: to `CCCCCCCCS(=O)(=O)Nc1cc(C(=O)Nc2ccccc2)ccc1OC` [Example 178, 4-Methoxy-3-(octane-1-sulfonylamino)-N-phenyl-benzamide] belongs 4 nM.
In turn, `CCCCCCCCCCS(=O)(=O)Nc1cc(C(=O)Nc2ccccc2)ccc1OC` [Example 179, 3-(Decane-1-sulfonylamino)-4-methoxy-N-phenyl-benzamide] gave an IC50 of 7 nM. This IC50 lies about 1.8-fold higher than the previous one.
Compound `COc1ccc(C(=O)Nc2ccc(F)c(F)c2)cc1NS(=O)(=O)c1cccc([N+](=O)[O-])c1` [Example 180, 3-(3-Nitro-benzenesufonylamino)-4-methoxy-N-(3,4-difluoro-phenyl)-benzamide] came in with an IC50 of 36 nM.
`COc1ccc(C(=O)Nc2ccccc2)cc1NS(=O)(=O)C(C)C` [Example 182, 3-(1-Methylethyl-1-sulfonylamino)-4-methoxy-N-phenyl-benzamide] gave an IC50 of 232 nM.
`COc1ccc(C(=O)Nc2ccccc2)cc1NS(=O)(=O)c1ccc(C(=O)O)cc1` [Example 183, 4-(2-Methoxy-5-phenylcarbamoyl-phenylsulfamoyl)-benzoic Acid] yielded an IC50 of 293 nM.
The compound `CCCCCCCCCCCCCCCCCCS(=O)(=O)Nc1cc(C(=O)Nc2ccccc2)ccc1OC` [Example 184, 3-(Octadecane-1-sulfonylamino)-4-methoxy-N-phenyl-benzamide] displayed an IC50 of 732 nM.

The test is the same for the next values; noted with them: Table 2; concentration not given.
Consider `COc1ccc(NC(=O)Nc2ccc(Cl)c(Cl)c2)cc1NC(=S)Nc1cccc(C(=O)O)c1` [Example 173, 3-(3-{5-[3-(3,4-Dichloro-phenyl}-ureido]-2-methoxy-phenyl)-thioureido)-benzoic Acid], for which the “h15LO, value given as bare %” value is recorded as 55%.
`COc1ccc(NC(=O)Nc2ccc(Cl)c(Cl)c2)cc1NC(=S)Nc1cc(C(F)(F)F)cc(C(F)(F)F)c1` [Example 174, 1-{3-[3-(3,5-Bis-trifluoromethyl-phenyl)-thioureido]-4-methoxy-phenyl}-3-(3,4-dichloro-phenyl)-urea]: the “h15LO, value given as bare %” value was 53%.
On the same count and under the same terms, to `COc1ccc(NC(=O)Nc2ccc(Cl)c(Cl)c2)cc1NC(=S)Nc1ccc(Cl)c([N+](=O)[O-])c1` [Example 175, 1-{3-[3-(4-Chloro-3-nitro-phenyl)-thioureido]-4-methoxy-phenyl}-3-(3,4-dichloro-phenyl)-urea] belongs 52%; to `COc1ccc(C(=O)Nc2ccc(F)c(F)c2)cc1NS(=O)(=O)c1cccc(N)c1` [Example 185, 3-(3-Amino-benzenesulfonylamino)-4-methoxy-N-(3,4-difluoro-phenyl)-benzamide], 99.71%.
As to `COc1ccc(C(=O)Nc2ccc(F)c(F)c2)cc1NS(=O)(=O)c1ccc([N+](=O)[O-])cc1` [Example 186, 4-Methoxy-3-(4-nitro-benzenesulfonylamino)-N-(3,4-difluoro-phenyl)-benzamide], the “h15LO, value given as bare %” value is listed as 99.35%.
Same read-out and setting: to `COc1ccc(C(=O)Nc2ccc(F)c(F)c2)cc1NS(=O)(=O)c1ccc(C#N)cc1` [Example 187, 3-(4-Cyano-benzenesulfonylamino)-4-methoxy-N-(3,4-difluoro-phenyl)-benzamide] belongs 98.38%; to `COc1ccc(C(=O)Nc2ccccc2)cc1NS(=O)(=O)c1ccc([N+](=O)[O-])cc1` [Example 188, 4-Methoxy-3-(4-nitro-benzenesulfonylamino)-N-phenyl-benzamide], 97.24%; to `COc1ccc(C(=O)Nc2ccc(F)cc2)cc1NS(=O)(=O)c1cccc(C#N)c1` [Example 189, 3-(3-Cyano-benzenesulfonylamino)-4-methoxy-N-(4-fluoro-phenyl)-benzamide], 97.17%.
